Experimental data reported in patent publication US10722520B2, “Heterocyclic compounds and their use in preventing or treating bacterial infections” (MUTABILIS, priority 2016, dated 2020).
Where two headings read alike, the source gives them in different places.

Columns and labels:
[1] = biological target: T1, AmpC (PAE) (Pseudomonas aeruginosa, UniProt P24735); assay: biochemical
[2] = biological target: AmpC (P99) (Enterobacter cloacae, UniProt P05364); details: read-out: IC50 β-lactamase AmpC (P99); class (C); nitrocefin 200 μM, 30-min pre-incubation, enzyme 0.2 nM
Sequence of AmpC (P99) (P05364 21-381): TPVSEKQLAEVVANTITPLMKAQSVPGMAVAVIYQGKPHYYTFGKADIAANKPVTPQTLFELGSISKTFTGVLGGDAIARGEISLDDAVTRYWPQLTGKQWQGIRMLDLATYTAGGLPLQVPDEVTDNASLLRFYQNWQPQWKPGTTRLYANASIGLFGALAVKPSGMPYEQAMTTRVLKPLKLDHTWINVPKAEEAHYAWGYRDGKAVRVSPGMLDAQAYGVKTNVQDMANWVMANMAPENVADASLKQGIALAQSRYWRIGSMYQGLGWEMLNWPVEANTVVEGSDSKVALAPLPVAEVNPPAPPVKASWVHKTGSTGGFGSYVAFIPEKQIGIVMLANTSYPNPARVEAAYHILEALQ

[3] = biological target: OXA-15 (Pseudomonas aeruginosa, UniProt Q51574); details: read-out: IC50 β-lactamase OXA-15; class (D); nitrocefin 200 μM, 30-min pre-incubation, enzyme 0.4 nM
Sequence of OXA-15 (Q51574 22-275): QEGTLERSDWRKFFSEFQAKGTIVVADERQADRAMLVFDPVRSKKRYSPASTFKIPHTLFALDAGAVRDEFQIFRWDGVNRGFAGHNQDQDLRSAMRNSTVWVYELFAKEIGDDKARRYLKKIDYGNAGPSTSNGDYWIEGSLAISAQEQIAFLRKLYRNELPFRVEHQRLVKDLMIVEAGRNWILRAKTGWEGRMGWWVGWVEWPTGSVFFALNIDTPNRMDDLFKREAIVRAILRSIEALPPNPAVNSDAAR

[4] = biological target: T1, AmpC (PAE); details: read-out: IC50 β-lactamase AmpC (PAE); class (C); nitrocefin 200 μM, 30-min pre-incubation, enzyme 0.4 nM

T1 sequence (P24735 27-397): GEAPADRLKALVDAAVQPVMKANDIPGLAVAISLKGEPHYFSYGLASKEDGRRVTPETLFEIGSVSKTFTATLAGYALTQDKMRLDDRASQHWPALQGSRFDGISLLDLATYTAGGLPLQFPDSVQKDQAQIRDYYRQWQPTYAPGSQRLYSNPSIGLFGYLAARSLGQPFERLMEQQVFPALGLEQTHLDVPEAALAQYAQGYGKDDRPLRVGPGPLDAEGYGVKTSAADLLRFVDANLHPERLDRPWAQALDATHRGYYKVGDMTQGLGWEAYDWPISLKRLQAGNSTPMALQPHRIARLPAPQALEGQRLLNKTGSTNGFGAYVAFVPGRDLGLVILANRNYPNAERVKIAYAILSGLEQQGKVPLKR

Row | SMILES | IC50 [1] | IC50 [2] | IC50 [3] | IC50 [4]
1 | O=C1N2CC(n3cncn3)=CC(C2)N1OS(=O)(=O)[O-].[Na+] (centres unmarked) [Example 5, sodium [7-oxo-3-(1,2,4-triazol-1-yl)-1,6-diazabicyclo[3.2.1]oct-3-en-6-yl]sulfate] | 140 nM | – | – | –
2 | O=C1N2CC(n3ccnn3)=CC(C2)N1OS(=O)(=O)[O-].[Na+] (centres unmarked) [Example 2, sodium [7-oxo-3-(triazol-1-yl)-1,6-diazabicyclo[3.2.1]oct-3-en-6-yl]sulfate] | – | 10 nM | 40 nM | 150 nM
3 | O=C1N2CC(n3ccsc3=O)=CC(C2)N1OS(=O)(=O)[O-].[Na+] (centres unmarked) [Example 1, Sodium [7-oxo-3-(2-oxo-thiazol-3-yl)-1,6-diaza-bicyclo[3.2.1]oct-3-en-6-yl]sulfate] | 120 nM | – | – | –
